Laboratory results reported in patent US12187701B2, “Taire family kinase inhibitors and uses thereof” (Dana-Farber Cancer Institute, Inc., priority 2018, dated 2025).
Where two headings read alike, the source gives them in different places.

Legend:
HCT116 cells = assay: Antiproliferation assay, Cell Titer Glo, 72 hours; assay type: cell-based
In short: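 HCT116 cells seeded at 750 cells/well in McCoy's 5A with 10% FBS and exposed to four-fold compound dilution series for 72 h at 37 °C, 5% CO2. Viability by CellTiter-Glo luminescence, quadruplicate; IC50 by non-linear regression.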

Cdk14 [1] = target: T1, Cdk14 (Homo sapiens (Human), UniProt O94921); assay: Cellular pull down with biotinylated probe, CDK14; assay type: cell-based; conditions: HEK293 cells overexpressing Cdk14-flag, 4 hours treatment; for Cellular Potency by Pulldown: some cells print Y or N instead of a concentration;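 for all read-outs here: biotinylated probe used at 1 µM in lysates overnight at 4 °C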
Protocol: HEK293 cells overexpressing a Cdk14-flag fusion protein were treated with candidate compounds for 4 hours. Cells were washed with PBS, harvested and lysed in Pierce IP buffer with protease and phosphatase inhibitors (Roche). […] To enhance pulldown, lysates were incubated at room temperature for an additional 2 hours. […] Beads were then washed 3 times with Pierce IP buffer, then boiled at 95° C. for 5 minutes in 2× LDS+10% β-mercaptoethanol. Proteins of interest engaged by the biotinylated compound were then assessed using western blotting.
Target sequence in this assay (O94921 whole entry, the tested form may be a part): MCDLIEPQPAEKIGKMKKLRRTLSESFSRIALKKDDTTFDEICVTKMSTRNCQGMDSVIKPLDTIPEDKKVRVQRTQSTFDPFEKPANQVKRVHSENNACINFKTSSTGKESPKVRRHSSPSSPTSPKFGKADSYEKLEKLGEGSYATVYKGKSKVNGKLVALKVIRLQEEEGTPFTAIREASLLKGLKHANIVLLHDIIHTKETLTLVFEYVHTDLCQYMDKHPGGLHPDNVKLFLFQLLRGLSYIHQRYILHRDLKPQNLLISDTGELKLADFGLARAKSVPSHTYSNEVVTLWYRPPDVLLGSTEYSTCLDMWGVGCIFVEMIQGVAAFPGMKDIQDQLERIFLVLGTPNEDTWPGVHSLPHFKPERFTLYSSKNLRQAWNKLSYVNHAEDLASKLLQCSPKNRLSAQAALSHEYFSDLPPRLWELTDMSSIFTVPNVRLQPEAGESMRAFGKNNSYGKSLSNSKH

Cdk14 [2] = target: T1, Cdk14; assay: Cdk14 33P kinase assay (Reaction Biology Corp.); assay type: biochemical
Target sequence in this assay (O94921 whole entry, looked up, the tested form may be a part): as the sequence (O94921 whole entry, the tested form may be a part) above
Target sequence in this assay (Q8ND76 whole entry partner, looked up, the tested form may be a part): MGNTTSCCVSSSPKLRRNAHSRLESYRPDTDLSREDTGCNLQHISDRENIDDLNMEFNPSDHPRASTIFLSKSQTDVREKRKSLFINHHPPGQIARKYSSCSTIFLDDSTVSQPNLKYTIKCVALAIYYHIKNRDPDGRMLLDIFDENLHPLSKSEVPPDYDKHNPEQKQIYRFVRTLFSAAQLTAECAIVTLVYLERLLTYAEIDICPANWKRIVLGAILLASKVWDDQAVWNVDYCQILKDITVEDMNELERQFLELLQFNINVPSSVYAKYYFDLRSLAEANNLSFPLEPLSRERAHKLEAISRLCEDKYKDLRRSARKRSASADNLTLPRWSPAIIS

CDK2/CycA = CDK2/CycA (Homo sapiens (Human), UniProt P24941); assay: Z'LYTE kinase assay for CDK2/CycA at Km ATP; assay type: biochemical
CDK16/CycY = CDK16/CycY (Homo sapiens (Human), UniProt Q00536); assay: Lanthascreen Eu kinase binding assay for CDK16/CycY
Sequence of CDK16/CycY (Q00536 whole entry): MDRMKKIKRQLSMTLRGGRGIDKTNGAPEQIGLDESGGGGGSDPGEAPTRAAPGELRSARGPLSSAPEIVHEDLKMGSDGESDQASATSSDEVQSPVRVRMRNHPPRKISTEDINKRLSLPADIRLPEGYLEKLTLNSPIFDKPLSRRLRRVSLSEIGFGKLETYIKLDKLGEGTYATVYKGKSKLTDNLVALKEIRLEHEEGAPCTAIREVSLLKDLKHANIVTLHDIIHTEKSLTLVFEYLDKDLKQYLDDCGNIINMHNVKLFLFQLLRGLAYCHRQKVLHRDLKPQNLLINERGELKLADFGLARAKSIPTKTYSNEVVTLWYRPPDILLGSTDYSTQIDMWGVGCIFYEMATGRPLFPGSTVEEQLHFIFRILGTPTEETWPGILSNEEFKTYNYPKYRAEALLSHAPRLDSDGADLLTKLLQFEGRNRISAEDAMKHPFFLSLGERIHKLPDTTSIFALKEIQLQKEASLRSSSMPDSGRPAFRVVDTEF
Sequence of CDK16/CycY (Q8ND76 whole entry partner): as the sequence (Q8ND76 whole entry partner, looked up, the tested form may be a part) above
Protocol: Lanthascreen Eu kinase binding assays were conducted for CDK16/CycY at Life Technologies.

Cdk14/CycY = Cdk14/CycY (Homo sapiens (Human), UniProt O94921); assay: Lanthascreen Eu kinase binding assay for Cdk14/CycY with 30 minute pre-incubation; conditions: 30 minute pre-incubation of kinase with compound
Sequence of Cdk14/CycY (O94921 whole entry): as the sequence (O94921 whole entry, the tested form may be a part) above
Sequence of Cdk14/CycY (Q8ND76 whole entry partner): as the sequence (Q8ND76 whole entry partner, looked up, the tested form may be a part) above
Protocol: Lanthascreen Eu kinase binding assays were conducted for Cdk14/CycY largely as performed in the commercial assay service by Life Technologies, but included a 30 minute pre-incubation step of the kinase with candidate compounds to facilitate covalent bond formation.

Cdk14 [3] = target: T1, Cdk14; assay: Protein labeling and mass spectrometry analysis of recombinant Cdk14; assay type: binding; conditions: 10-fold molar excess of compound, 2 hours, room temperature
Target sequence in this assay (O94921 whole entry, the tested form may be a part): as the sequence (O94921 whole entry, the tested form may be a part) above
Protocol: For each analysis, 5 μg protein was injected onto a self-packed reversed phase column ( 1/32″ O.D.×500 um I.D., 5 cm of POROS 50R2 resin). After desalting for four minutes, protein was eluted with an HPLC gradient (0-100% B in 4 minutes, A=0.2M acetic acid in water, B=0.2 M acetic acid in acetonitrile, flow rate=10 μL/min) into an LTQ ion trap mass spectrometer (ThermoFisher). […] After reconstituting in 50% acetonitrile, 1% formic acid, 100 mM ammonium acetate, peptides were analyzed by CE-MS using a ZipChip CE system and autosampler interfaced to a QExactive HF mass spectrometer.^7 (ThermoFisher Scientific, San Jose, CA). Peptide solution was loaded for 30 seconds and separation performed at 500 V/cm on an HR chip for 10 minutes with a background electrolyte consisting of 1% formic acid in 50% acetonitrile. Pressure assist was utilized and started at 1 minute. The mass spectrometer was operated in data dependent mode and subjected the 5 most abundant ions in each MS scan (60 k resolution, 1E6 target, lock mass enabled) to MS/MS (15 k resolution, 2E5 target, 100 ms max inject time). Dynamic exclusion was enabled with a repeat count of 1 and an exclusion time of 6 seconds. MS/MS data was extracted to .mgf using mulitplierz scripts^8,9 and searched against a forward-reverse human NCBI refseq database using Mascot version 2.2. […]

CDK12 = CDK12 (Homo sapiens (Human), UniProt Q9NYV4); assay: Cellular pull down with biotinylated probe, CDK12; assay type: cell-based; conditions: HEK293 cells, 4 hours treatment; Y/N/slight
Sequence of CDK12 (Q9NYV4 whole entry, the tested form may be a part): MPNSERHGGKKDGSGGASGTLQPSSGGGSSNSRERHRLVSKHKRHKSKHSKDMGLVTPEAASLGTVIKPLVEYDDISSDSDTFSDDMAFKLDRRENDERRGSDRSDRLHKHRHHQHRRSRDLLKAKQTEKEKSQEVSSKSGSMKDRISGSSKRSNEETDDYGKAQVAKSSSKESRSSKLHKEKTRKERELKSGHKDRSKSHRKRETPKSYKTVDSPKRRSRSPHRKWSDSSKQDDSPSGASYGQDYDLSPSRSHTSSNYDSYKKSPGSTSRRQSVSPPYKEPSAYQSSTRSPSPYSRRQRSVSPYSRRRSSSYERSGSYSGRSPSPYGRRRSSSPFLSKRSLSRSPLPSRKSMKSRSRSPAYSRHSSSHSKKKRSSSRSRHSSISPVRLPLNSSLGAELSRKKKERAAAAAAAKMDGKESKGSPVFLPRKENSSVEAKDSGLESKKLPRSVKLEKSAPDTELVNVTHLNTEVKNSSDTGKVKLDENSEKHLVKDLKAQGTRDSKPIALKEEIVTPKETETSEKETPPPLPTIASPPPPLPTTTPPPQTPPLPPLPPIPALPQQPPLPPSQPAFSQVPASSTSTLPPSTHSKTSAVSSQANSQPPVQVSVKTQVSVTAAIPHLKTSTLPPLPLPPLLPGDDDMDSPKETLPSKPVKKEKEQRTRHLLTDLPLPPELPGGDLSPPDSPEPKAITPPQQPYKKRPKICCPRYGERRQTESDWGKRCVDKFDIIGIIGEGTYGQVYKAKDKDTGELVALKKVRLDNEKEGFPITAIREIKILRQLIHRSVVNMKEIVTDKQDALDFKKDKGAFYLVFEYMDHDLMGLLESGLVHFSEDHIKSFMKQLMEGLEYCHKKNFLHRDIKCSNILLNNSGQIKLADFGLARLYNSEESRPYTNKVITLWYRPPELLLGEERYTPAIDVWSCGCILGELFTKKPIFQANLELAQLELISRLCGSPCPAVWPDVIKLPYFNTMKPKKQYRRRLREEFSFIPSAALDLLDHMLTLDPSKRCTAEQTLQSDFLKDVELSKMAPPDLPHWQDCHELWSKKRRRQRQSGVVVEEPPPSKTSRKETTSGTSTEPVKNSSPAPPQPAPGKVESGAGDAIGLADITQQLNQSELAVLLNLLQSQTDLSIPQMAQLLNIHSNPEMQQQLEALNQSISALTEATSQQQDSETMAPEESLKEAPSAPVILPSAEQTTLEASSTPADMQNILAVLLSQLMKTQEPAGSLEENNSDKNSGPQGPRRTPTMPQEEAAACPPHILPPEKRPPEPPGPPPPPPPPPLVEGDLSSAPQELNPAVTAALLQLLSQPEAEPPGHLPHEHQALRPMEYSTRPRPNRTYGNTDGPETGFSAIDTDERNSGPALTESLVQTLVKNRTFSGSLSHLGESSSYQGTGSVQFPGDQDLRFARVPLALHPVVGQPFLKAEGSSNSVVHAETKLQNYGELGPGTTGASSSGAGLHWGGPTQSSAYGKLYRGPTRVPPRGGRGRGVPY
Protocol: HEK293 cells overexpressing a Cdk14-flag fusion protein were treated with candidate compounds for 4 hours. Cells were washed with PBS, harvested and lysed in Pierce IP buffer with protease and phosphatase inhibitors (Roche). […] To enhance pulldown, lysates were incubated at room temperature for an additional 2 hours. Lysates were then incubated with streptavidin agarose (Thermo scientific, cat. #20349) for 2 hours at 4° C. Beads were then washed 3 times with Pierce IP buffer, then boiled at 95° C. for 5 minutes in 2× LDS+10% β-mercaptoethanol. Proteins of interest engaged by the biotinylated compound were then assessed using western blotting. The results of the cellular pulldown protocol are provided in Tables 1 and 2A, 2B, 2C, and 2D below (Columns titled “CDK2 pulldown,” “CDK9 pulldown,” “CDK12 pulldown blocked,” “CDK14 pulldown blocked,” and “Cellular Potency Pulldown.”)

[4] = read-out: IC50 CDK2 Z′LYTE kinase assay
[5] = read-out: IC50 CDK16 Lanthascreen binding
[6] = read-out: IC50 CDK14 binding by Lanthascreen

SMILES	IC50 (HCT116 cells; Homo sapiens, HCT-116, 72 h)	Cellular Potency by Pulldown (Cdk14 [1])	IC50 (Cdk14 [2])	IC50 (CDK2/CycA; [4])	IC50 (CDK16/CycY; [5])	IC50 (Cdk14/CycY; [6])	CDK14 pulldown blocked (Cdk14 [1])	MS labeling of CDK14* (Cdk14 [3])	IC50 (CDK2/CycA; read-out: CDK2 IC50)	IC50 (CDK16/CycY; read-out: CDK16 IC50)	IC50 (HCT116 cells)	CDK12 pulldown blocked (CDK12)	IC50 (Cdk14/CycY; read-out: CDK14 IC50 (nM) LanthaScreen)
CN(C)C/C=C/C(=O)Nc1cccc(S(=O)(=O)N2CCC(NC(=O)c3n[nH]cc3NC(=O)c3c(F)cc(F)cc3F)CC2)c1 [FMF-04-095-2, (E)-N-(1-((3-(4-(dimethylamino)but-2-enamido)phenyl)sulfonyl)piperidin-4-yl)-4-(2,4,6-trifluorobenzamido)-1H-pyrazole-3-carboxamide]	90 nM	500 nM	380 nM	3.7 nM	5.2 nM	10.2 nM	–	–	–	–	–	–	–
CCOc1cccc(Cl)c1C(=O)Nc1c[nH]nc1C(=O)NC1CCN(S(=O)(=O)c2cccc(NC(=O)/C=C/CN(C)C)c2)CC1 [FMF-05-118-1, (E)-4-(2-chloro-6-ethoxybenzamido)-N-(1-((3-(4-(dimethylamino)but-2-enamido)phenyl)sulfonyl)piperidin-4-yl)-1H-pyrazole-3-carboxamide]	102 nM	1000 nM	–	2.95 nM	2.91 nM	–	1000 nM	50%	2.9 nM	2.9 nM	–	–	–
C=CC(=O)Nc1cccc(CN2CCC(NC(=O)c3n[nH]cc3NC(=O)c3c(Cl)cccc3OC)CC2)c1 [FMF-04-161-1, N-(1-(3-acrylamidobenzyl)piperidin-4-yl)-4-(2-chloro-6-methoxybenzamido)-1H-pyrazole-3-carboxamide]	9 nM	100 nM	557 nM	50.2 nM	12.8 nM	11 nM	–	–	–	–	–	–	–
COc1cccc(F)c1C(=O)Nc1c[nH]nc1C(=O)NC1CCN(S(=O)(=O)c2cccc(NC(=O)/C=C/CN(C)C)c2)CC1 [FMF-04-097-2, (E)-N-(1-((3-(4-(dimethylamino)but-2-enamido)phenyl)sulfonyl)piperidin-4-yl)-4-(2-fluoro-6-methoxybenzamido)-1H-pyrazole-3-carboxamide]	174 nM	250 nM	238 nM	3.7 nM	2.8 nM	> 1000 nM	–	–	–	–	–	–	–
C=CC(=O)Nc1cccc(S(=O)(=O)N2CCC(NC(=O)c3n[nH]cc3NC(=O)c3c(Cl)cc(Cl)cc3Cl)CC2)c1 [FMF-04-159-1, N-(1-((3-acrylamidophenyl)sulfonyl)piperidin-4-yl)-4-(2,4,6-trichlorobenzamido)-1H-pyrazole-3-carboxamide]	25 nM	500 nM	1050 nM	20.6 nM	46.6 nM	49 nM	–	–	–	–	–	–	–
CN(C)C/C=C/C(=O)Nc1cccc(S(=O)(=O)N2CCC(NC(=O)c3n[nH]cc3NC(=O)c3c(F)cccc3F)CC2)c1 [FMF-04-096-2, (E)-4-(2,6-difluorobenzamido)-N-(1-((3-(4-(dimethylamino)but-2-enamido)phenyl)sulfonyl)piperidin-4-yl)-1H-pyrazole-3-carboxamide]	157 nM	250 nM	268 nM	2.6 nM	2.6 nM	3.4 nM	–	–	–	–	–	–	–
CN(C)C/C=C/C(=O)Nc1cccc(S(=O)(=O)N2CCC(NC(=O)c3n[nH]cc3NC(=O)c3c(Cl)cc(Cl)cc3Cl)CC2)c1 [FMF-04-159-2, (E)-N-(1-((3-(4-(dimethylamino)but-2-enamido)phenyl)sulfonyl)piperidin-4-yl)-4-(2,4,6-trichlorobenzamido)-1H-pyrazole-3-carboxamide]	450 nM	500 nM	718 nM	10.1 nM	8.2 nM	47 nM	500 nM	100%	8.2 nM	10.1 nM	450 nM	slight	46.6 nM
C=CC(=O)Nc1cccc(S(=O)(=O)N2CCC(NC(=O)c3n[nH]cc3NC(=O)c3c(F)cc(F)cc3F)CC2)c1 [FMF-04-095-1, N-(1-((3-acrylamidophenyl)sulfonyl)piperidin-4-yl)-4-(2,4,6-trifluorobenzamido)-1H-pyrazole-3-carboxamide]	7 nM	–	> 1000 nM	7.5 nM	–	122 nM	–	–	–	–	–	–	–
CN(C)C/C=C/C(=O)Nc1ccc(C(=O)Nc2ccc(NC(=O)c3n[nH]cc3NC(=O)c3c(Cl)cccc3Cl)cc2)cc1 [FMF-04-012-2, (E)-4-(2,6-dichlorobenzamido)-N-(4-(4-(4-(dimethylamino)but-2-enamido)benzamido)phenyl)-1H-pyrazole-3-carboxamide]	14 nM	–	560 nM	52.8 nM	111 nM	68 nM	–	–	–	–	–	–	–
C=CC(=O)Nc1cccc(C(=O)N2CCC(NC(=O)c3n[nH]cc3NC(=O)c3c(Cl)cccc3Cl)CC2)c1 [FMF-03-196-1, N-(1-(3-acrylamidobenzoyl)piperidin-4-yl)-4-(2,6-dichlorobenzamido)-1H-pyrazole-3-carboxamide]	32 nM	1000 nM	36.5 nM	3.4 nM	11.4 nM	45 nM	–	–	–	–	–	–	–
CN(C)C/C=C/C(=O)Nc1ccc(S(=O)(=O)N2CCC(NC(=O)c3n[nH]cc3NC(=O)c3c(Cl)cccc3Cl)CC2)cc1 [FMF-03-197-2, (E)-4-(2,6-dichlorobenzamido)-N-(1-((4-(4-(dimethylamino)but-2-enamido)phenyl)sulfonyl)piperidin-4-yl)-1H-pyrazole-3-carboxamide]	23 nM	–	42.8 nM	2.8 nM	1.2 nM	2.6 nM	–	–	–	–	–	–	–
CN(C)C/C=C/C(=O)Nc1ccc(CN2CCC(NC(=O)c3n[nH]cc3NC(=O)c3c(Cl)cccc3Cl)CC2)cc1 [FMF-03-199-2, (E)-4-(2,6-dichlorobenzamido)-N-(1-(4-(4-(dimethylamino)but-2-enamido)benzyl)piperidin-4-yl)-1H-pyrazole-3-carboxamide]	2.6 nM	–	786 nM	24 nM	18.2 nM	14 nM	–	–	–	–	–	–	–
CN(C)C/C=C/C(=O)Nc1cccc(C(=O)Nc2ccc(NC(=O)c3n[nH]cc3NC(=O)c3c(Cl)cccc3Cl)cc2)c1 [FMF-03-206-1, (E)-4-(2,6-dichlorobenzamido)-N-(4-(3-(4-(dimethylamino)but-2-enamido)benzamido)phenyl)-1H-pyrazole-3-carboxamide]	37 nM	1000 nM	342 nM	22.4 nM	56.8 nM	17 nM	–	–	–	–	–	–	–
C=CC(=O)Nc1cccc(CN2CCC(NC(=O)c3n[nH]cc3NC(=O)c3c(F)cccc3F)CC2)c1 [FMF-04-160-1, N-(1-(3-acrylamidobenzyl)piperidin-4-yl)-4-(2,6-difluorobenzamido)-1H-pyrazole-3-carboxamide]	7 nM	500 nM	1470 nM	165 nM	120 nM	64 nM	–	–	–	–	–	–	–
